Results: patent US20230295197A1, “STAT5 and STAT6 Degraders and Uses Thereof” (REGENTS OF THE UNIVERSITY OF MICHICAN, priority 2022, published 2023)

What follows are molecules tested against T1, STAT6 (Homo sapiens, UniProt P42226) (assay: Immunoblotting (Western blot) analysis of STAT6 degradation efficiency of degraders in treated cells). Settings: L1236 cells, read-out: DC50 S6 L1236.
T1 construct: endogenous in cells; host or cells: MOLM-16, KU-812, SKNO1, MB231, L1236
T1 sequence (P42226 1-847): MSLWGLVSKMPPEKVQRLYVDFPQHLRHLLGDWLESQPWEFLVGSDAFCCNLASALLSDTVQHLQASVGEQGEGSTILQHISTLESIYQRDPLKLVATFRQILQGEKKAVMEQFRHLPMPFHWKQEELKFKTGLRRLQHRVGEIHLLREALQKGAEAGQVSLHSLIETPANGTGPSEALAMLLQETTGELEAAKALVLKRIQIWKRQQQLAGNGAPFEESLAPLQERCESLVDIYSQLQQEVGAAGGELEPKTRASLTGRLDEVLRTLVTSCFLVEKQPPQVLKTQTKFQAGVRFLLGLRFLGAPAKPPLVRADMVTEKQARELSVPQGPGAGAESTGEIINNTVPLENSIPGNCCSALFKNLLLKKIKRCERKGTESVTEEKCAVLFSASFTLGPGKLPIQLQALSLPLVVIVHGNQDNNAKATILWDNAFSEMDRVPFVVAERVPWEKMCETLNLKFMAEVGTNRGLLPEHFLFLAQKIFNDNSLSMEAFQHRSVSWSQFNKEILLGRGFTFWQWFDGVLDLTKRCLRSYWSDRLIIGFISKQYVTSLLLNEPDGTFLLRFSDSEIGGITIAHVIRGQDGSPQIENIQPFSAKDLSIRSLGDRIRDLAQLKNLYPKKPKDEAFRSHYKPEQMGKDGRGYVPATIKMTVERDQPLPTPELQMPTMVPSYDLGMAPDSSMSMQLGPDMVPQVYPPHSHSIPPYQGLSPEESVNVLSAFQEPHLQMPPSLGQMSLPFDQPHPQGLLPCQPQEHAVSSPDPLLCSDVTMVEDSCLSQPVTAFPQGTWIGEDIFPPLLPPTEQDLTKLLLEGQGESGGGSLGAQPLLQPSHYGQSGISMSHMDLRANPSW
Type: cell-based
Method in brief: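 About 1 million cells per point, grown in 10% FBS medium at 37 °C/5% CO2, were exposed to compound at the indicated concentrations and times, then lysed in RIPA buffer with protease and phosphatase inhibitors. Equal protein (20-40 μg) was resolved by SDS-PAGE, blotted to PVDF, and probed with anti-STAT5, anti-STAT6 and anti-GAPDH antibodies.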
Cc1ncsc1-c1ccc([C@H](C)NC(=O)[C@@H]2C[C@@H](O)CN2C(=O)[C@@H](NC(=O)CCCCCNC(=O)CO[C@H]2C[C@@H](C(=O)N3CCC[C@H](c4ccccc4)C3)N(C(=O)[C@@H](NC(=O)c3cc4cc(C(F)(F)P(=O)(O)O)ccc4s3)C(C)(C)C)C2)C(C)(C)C)cc1 [Compound 438, (difluoro(2-(((S)-1-((2S,4S)-4-(2-((6-(((S)-1-((2S,4R)-4-hydroxy-2-(((S)-1-(4-(4-methylthiazol-5-yl)phenyl)ethyl)carbamoyl)pyrrolidin-1-yl)-3,3-dimethyl-1-oxobutan-2-yl)amino)-6-oxohexyl)amino)-2-oxoethoxy)-2-((R)-3-phenylpiperidine-1-carbonyl)pyrrolidin-1-yl)-3,3-dimethyl-1-oxobutan-2-yl)carbamoyl)benzo[b]thiophen-5-yl)methyl)phosphonic acid] gave a DC50 greater than 10 µM.
Cc1ncsc1-c1ccc([C@H](C)NC(=O)[C@@H]2C[C@@H](O)CN2C(=O)[C@@H](NC(=O)CNC(=O)CO[C@H]2C[C@@H](C(=O)N3CCC[C@H](c4ccccc4)C3)N(C(=O)[C@@H](NC(=O)c3cc4cc(C(F)(F)P(=O)(O)O)ccc4s3)C(C)(C)C)C2)C(C)(C)C)cc1 [Compound 434, (difluoro(2-(((S)-1-((2S,4S)-4-(2-((2-(((S)-1-((2S,4R)-4-hydroxy-2-(((S)-1-(4-(4-methylthiazol-5-yl)phenyl)ethyl)carbamoyl)pyrrolidin-1-yl)-3,3-dimethyl-1-oxobutan-2-yl)amino)-2-oxoethyl)amino)-2-oxoethoxy)-2-((R)-3-phenylpiperidine-1-carbonyl)pyrrolidin-1-yl)-3,3-dimethyl-1-oxobutan-2-yl)carbamoyl)benzo[b]thiophen-5-yl)methyl)phosphonic acid] was tested, and the DC50 was greater than 10 µM.

Same assay, conditions: MOLM-16 cells, class symbols, read-out: DC50 S6 MOLM-16
With CC(C)(C)[C@H](NC(=O)c1cc2cc(C(F)(F)P(=O)(O)O)ccc2s1)C(=O)N1C[C@@H](OCC(=O)NCCCCCCCCCC#Cc2cccc3c2C(=O)N(C2CCC(=O)NC2=O)C3=O)C[C@H]1C(=O)N1CCO[C@H](c2ccccc2)C1 (stereo partly drawn) [Compound 491, ((2-(((2S)-1-((2S,4S)-4-(2-((11-(2-(2,6-dioxopiperidin-3-yl)-1,3-dioxoisoindolin-4-yl)undec-10-yn-1-yl)amino)-2-oxoethoxy)-2-((R)-2-phenylmorpholine-4-carbonyl)pyrrolidin-1-yl)-3,3-dimethyl-1-oxobutan-2-yl)carbamoyl)benzo[b]thiophen-5-yl)difluoromethyl)phosphonic acid] the DC50 was greater than 10 µM.
CC(C)(C)[C@H](NC(=O)c1cc2cc(C(F)(F)P(=O)(O)O)ccc2s1)C(=O)N1Cc2cc(OCC(=O)NCCCCCCCCC#Cc3cccc4c3C(=O)N(C3CCC(=O)NC3=O)C4=O)ccc2C[C@H]1C(=O)N1CCO[C@H](c2ccccc2)C1 (stereo partly drawn) [Compound 545, ((2-(((2S)-1-((3S)-7-(2-((10-(2-(2,6-dioxopiperidin-3-yl)-1,3-dioxoisoindolin-4-yl)dec-9-yn-1-yl)amino)-2-oxoethoxy)-3-((R)-2-phenylmorpholine-4-carbonyl)-3,4-dihydroisoquinolin-2(1H)-yl)-3,3-dimethyl-1-oxobutan-2-yl)carbamoyl)benzo[b]thiophen-5-yl)difluoromethyl)phosphonic acid] was tested, and the DC50 was greater than 10 µM.
Cc1ncsc1-c1ccc([C@H](C)NC(=O)[C@@H]2C[C@@H](O)CN2C(=O)[C@@H](NC(=O)CCCCCNC(=O)CO[C@H]2C[C@@H](C(=O)N3CCC[C@H](c4ccccc4)C3)N(C(=O)[C@@H](NC(=O)c3cc4cc(C(F)(F)P(=O)(O)O)ccc4s3)C(C)(C)C)C2)C(C)(C)C)cc1 [Compound 438, (difluoro(2-(((S)-1-((2S,4S)-4-(2-((6-(((S)-1-((2S,4R)-4-hydroxy-2-(((S)-1-(4-(4-methylthiazol-5-yl)phenyl)ethyl)carbamoyl)pyrrolidin-1-yl)-3,3-dimethyl-1-oxobutan-2-yl)amino)-6-oxohexyl)amino)-2-oxoethoxy)-2-((R)-3-phenylpiperidine-1-carbonyl)pyrrolidin-1-yl)-3,3-dimethyl-1-oxobutan-2-yl)carbamoyl)benzo[b]thiophen-5-yl)methyl)phosphonic acid] showed a DC50 greater than 10 µM.
Cc1ncsc1-c1ccc([C@H](CC(=O)NCCCCCCCC(=O)N[C@H]2C[C@@H](C(=O)N3CCO[C@H](c4ccccc4)C3)N(C(=O)[C@@H](NC(=O)c3cc4cc(C(F)(F)P(=O)(O)O)ccc4s3)C(C)(C)C)C2)NC(=O)[C@@H]2C[C@@H](O)CN2C(=O)[C@@H](NC(=O)C2(F)CC2)C(C)(C)C)cc1 [Compound 570, (difluoro(2-(((S)-1-((2S,4S)-4-(8-((S)-3-((2S,4R)-1-((S)-2-(1-fluorocyclopropane-1-carboxamido)-3,3-dimethylbutanoyl)-4-hydroxypyrrolidine-2-carboxamido)-3-(4-(4-methylthiazol-5-yl)phenyl)propanamido)octanamido)-2-((R)-2-phenylmorpholine-4-carbonyl)pyrrolidin-1-yl)-3,3-dimethyl-1-oxobutan-2-yl)carbamoyl)benzo[b]thiophen-5-yl)methyl)phosphonic acid] gave a DC50 greater than 10 µM.
With CC(C)(C)[C@H](NC(=O)c1cc2cc(C(F)(F)P(=O)(O)O)ccc2s1)C(=O)N1CCN(C(=O)CC(=O)NCCCCCC#Cc2ccc3c(c2)C(=O)N(C2CCC(=O)NC2=O)C3=O)C[C@H]1C(=O)N1CCC[C@H](c2ccccc2)C1 (stereo partly drawn) [Compound 530, ((2-(((2S)-1-((2S)-4-(3-((7-(2-(2,6-dioxopiperidin-3-yl)-1,3-dioxoisoindolin-5-yl)hept-6-yn-1-yl)amino)-3-oxopropanoyl)-2-((R)-3-phenylpiperidine-1-carbonyl)piperazin-1-yl)-3,3-dimethyl-1-oxobutan-2-yl)carbamoyl)benzo[b]thiophen-5-yl)difluoromethyl)phosphonic acid] the DC50 was greater than 10 µM.
In the case of CC(C)(C)[C@H](NC(=O)c1cc2cc(C(F)(F)P(=O)(O)O)ccc2s1)C(=O)N1Cc2cc(OCC(=O)NCCCCCC#Cc3cccc4c3C(=O)N(C3CCC(=O)NC3=O)C4=O)ccc2C[C@H]1C(=O)N1CCC[C@H](c2ccccc2)C1 (stereo partly drawn) [Compound 557, ((2-(((2S)-1-((3S)-7-(2-((7-(2-(2,6-dioxopiperidin-3-yl)-1,3-dioxoisoindolin-4-yl)hept-6-yn-1-yl)amino)-2-oxoethoxy)-3-((R)-3-phenylpiperidine-1-carbonyl)-3,4-dihydroisoquinolin-2(1H)-yl)-3,3-dimethyl-1-oxobutan-2-yl)carbamoyl)benzo[b]thiophen-5-yl)difluoromethyl)phosphonic acid], the DC50 is reported as greater than 10 µM.
With CC(C)(C)[C@H](NC(=O)C1=Cc2cc(C(F)(F)P(=O)(O)O)ccc2C1)C(=O)N1CSN(C(=O)CC(=O)NCC#Cc2cccc3c2C(=O)N(C2CCC(=O)NC2=O)C3=O)C[C@H]1C(=O)N1CCC[C@H](c2ccccc2)C1 (stereo partly drawn) [Compound 521, ((2-(((2S)-1-((4S)-2-(3-((3-(2-(2,6-dioxopiperidin-3-yl)-1,3-dioxoisoindolin-4-yl)prop-2-yn-1-yl)amino)-3-oxopropanoyl)-4-((R)-3-phenylpiperidine-1-carbonyl)-1,2,5-thiadiazinan-5-yl)-3,3-dimethyl-1-oxobutan-2-yl)carbamoyl)-1H-inden-5-yl)difluoromethyl)phosphonic acid] the DC50 was greater than 10 µM.
Work on Cc1ncsc1-c1ccc([C@H](CC(=O)NCCOCCOCCOCCC(=O)N[C@H]2C[C@@H](C(=O)N3CCO[C@H](c4ccccc4)C3)N(C(=O)[C@@H](NC(=O)c3cc4cc(C(F)(F)P(=O)(O)O)ccc4s3)C(C)(C)C)C2)NC(=O)[C@@H]2C[C@@H](O)CN2C(=O)[C@@H](NC(=O)C2(F)CC2)C(C)(C)C)cc1 [Compound 573, (difluoro(2-(((S)-1-((2S,4S)-4-((S)-1-((2S,4R)-1-((S)-2-(1-fluorocyclopropane-1-carboxamido)-3,3-dimethylbutanoyl)-4-hydroxypyrrolidin-2-yl)-3-(4-(4-methylthiazol-5-yl)phenyl)-1,5-dioxo-9,12,15-trioxa-2,6-diazaoctadecan-18-amido)-2-((R)-2-phenylmorpholine-4-carbonyl)pyrrolidin-1-yl)-3,3-dimethyl-1-oxobutan-2-yl)carbamoyl)benzo[b]thiophen-5-yl)methyl)phosphonic acid] yielded a DC50 greater than 10 µM.
In the case of Cc1ncsc1-c1ccc([C@H](C)NC(=O)[C@@H]2C[C@@H](O)CN2C(=O)[C@@H](NC(=O)CCCCCCNC(=O)COc2ccc3c(c2)CN(C(=O)[C@@H](NC(=O)c2cc4cc(C(F)(F)P(=O)(O)O)ccc4s2)C(C)(C)C)[C@H](C(=O)N2CCC[C@H](c4ccccc4)C2)C3)C(C)(C)C)cc1 [Compound 475, (difluoro(2-(((S)-1-((S)-7-(2-((7-(((S)-1-((2S,4R)-4-hydroxy-2-(((S)-1-(4-(4-methylthiazol-5-yl)phenyl)ethyl)carbamoyl)pyrrolidin-1-yl)-3,3-dimethyl-1-oxobutan-2-yl)amino)-7-oxoheptyl)amino)-2-oxoethoxy)-3-((R)-3-phenylpiperidine-1-carbonyl)-3,4-dihydroisoquinolin-2(1H)-yl)-3,3-dimethyl-1-oxobutan-2-yl)carbamoyl)benzo[b]thiophen-5-yl)methyl)phosphonic acid], the DC50 is reported as greater than 10 µM.
Cc1ncsc1-c1ccc([C@H](C)NC(=O)[C@@H]2C[C@@H](O)CN2C(=O)[C@@H](NC(=O)CNC(=O)CO[C@H]2C[C@@H](C(=O)N3CCC[C@H](c4ccccc4)C3)N(C(=O)[C@@H](NC(=O)c3cc4cc(C(F)(F)P(=O)(O)O)ccc4s3)C(C)(C)C)C2)C(C)(C)C)cc1 [Compound 434, (difluoro(2-(((S)-1-((2S,4S)-4-(2-((2-(((S)-1-((2S,4R)-4-hydroxy-2-(((S)-1-(4-(4-methylthiazol-5-yl)phenyl)ethyl)carbamoyl)pyrrolidin-1-yl)-3,3-dimethyl-1-oxobutan-2-yl)amino)-2-oxoethyl)amino)-2-oxoethoxy)-2-((R)-3-phenylpiperidine-1-carbonyl)pyrrolidin-1-yl)-3,3-dimethyl-1-oxobutan-2-yl)carbamoyl)benzo[b]thiophen-5-yl)methyl)phosphonic acid] was tested, and the DC50 was greater than 10 µM.
Work on CC(C)(C)[C@H](NC(=O)c1cc2cc(C(F)(F)P(=O)(O)O)ccc2s1)C(=O)N1C[C@@H](OCC(=O)NCC#Cc2ccc3c(c2)C(=O)N(C2CCC(=O)NC2=O)C3=O)C[C@H]1C(=O)N1CCC[C@H](c2ccccc2)C1 (stereo partly drawn) [Compound 494, ((2-(((2S)-1-((2S,4S)-4-(2-((3-(2-(2,6-dioxopiperidin-3-yl)-1,3-dioxoisoindolin-5-yl)prop-2-yn-1-yl)amino)-2-oxoethoxy)-2-((R)-3-phenylpiperidine-1-carbonyl)pyrrolidin-1-yl)-3,3-dimethyl-1-oxobutan-2-yl)carbamoyl)benzo[b]thiophen-5-yl)difluoromethyl)phosphonic acid] yielded a DC50 greater than 10 µM.
